Measured values: ChEMBL document CHEMBL1201862, “PubChem BioAssay data set” (2004)
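Dose response: 5 concentrations. Exposure: 48 h. Format: 96-well plates. Endpoint: linear interpolation; highest concentration if not reached. The concentration for 50% growth inhibition is given as GI50.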 The source made the active and inactive calls. No stated cut-off is given here; in the data, active = GI50 up to about 1.1 µM and inactive = higher.

How the values were obtained:
Assay in all cases: NCI anticancer screen, dose series, 48 h
TK-10 = test system: TK-10
M19-MEL = test system: M19-MEL
SF-539 = test system: SF-539
OVCAR-8 = test system: OVCAR-8
MOLT-4 = test system: MOLT-4
COLO 205 = test system: COLO 205
UO-31 = test system: UO-31
RXF 393 = test system: RXF 393
A498 = test system: A498
SF-268 = test system: SF-268
SNB-19 = test system: SNB-19
LXFL 529 = test system: LXFL 529
SK-MEL-2 = test system: SK-MEL-2
HCC 2998 = test system: HCC 2998
OVCAR-5 = test system: OVCAR-5
SK-MEL-28 = test system: SK-MEL-28
HT-29 = test system: HT-29
HOP-92 = test system: HOP-92
SF-295 = test system: SF-295
IGROV-1 = test system: IGROV-1
HOP-62 = test system: HOP-62
K562 = test system: K562
HL-60 = test system: HL-60
DMS-114 = test system: DMS-114
HCT-116 = test system: HCT-116
SNB-75 = test system: SNB-75
OVCAR-3 = test system: OVCAR-3
SNB-78 = test system: SNB-78
SK-OV-3 = test system: SK-OV-3
UACC-62 = test system: UACC-62
NCI-H460 = test system: NCI-H460
SN12C = test system: SN12C
UACC-257 = test system: UACC-257
CCRF-CEM = test system: CCRF-CEM
Malme-3M = test system: Malme-3M
EKVX = test system: EKVX
RPMI-8226 = test system: RPMI-8226
LOX IMVI = test system: LOX IMVI
HCT-15 = test system: HCT-15
NCI-H23 = test system: NCI-H23
U-251 = test system: U-251
786-0 = test system: 786-0
DLD-1 = test system: DLD-1
SW-620 = test system: SW-620
A549 = test system: A549
M14 = test system: M14
KM12 = test system: KM12
ACHN = test system: ACHN
KM-20L2 = test system: KM-20L2
SK-MEL-5 = test system: SK-MEL-5
NCI/ADR-RES = test system: NCI/ADR-RES
Hs-578T = test system: Hs-578T
MDA-MB-231 = test system: MDA-MB-231
CAKI-1 = test system: CAKI-1
NCI-H226 = test system: NCI-H226
MDA-N = test system: MDA-N
BT-549 = test system: BT-549
SR = test system: SR
MDA-MB-435 = test system: MDA-MB-435
NCI-H522 = test system: NCI-H522
OVCAR-4 = test system: OVCAR-4
T47D = test system: T47D
DU-145 = test system: DU-145
PC-3 = test system: PC-3
MCF7 = test system: MCF7

## O=C(O)/C(=C/C=C/c1ccccc1)c1csc(-c2nc(/C(=C\C=C\c3ccccc3)C(=O)O)cs2)n1
TK-10
  GI50: > 100 µM (inactive)
M19-MEL
  GI50: 31.1 µM (inactive)
SF-539
  GI50: 21.2 µM (inactive)
OVCAR-8
  GI50: 44.8 µM (inactive)
MOLT-4
  GI50: 1.69 µM (inactive)
COLO 205
  GI50: 22.3 µM (inactive)
UO-31
  GI50: 18.5 µM (inactive)
RXF 393
  GI50: 25.2 µM (inactive)
A498
  GI50: 68.2 µM (inactive)
SF-268
  GI50: 30.7 µM (inactive)
SNB-19
  GI50: 11.5 µM (inactive)
LXFL 529
  GI50: 24.7 µM (inactive)
SK-MEL-2
  GI50: 17.4 µM (inactive)
HCC 2998
  GI50: 20.1 µM (inactive)
OVCAR-5
  GI50: > 100 µM (inactive)
SK-MEL-28
  GI50: 33 µM (inactive)
HT-29
  GI50: 38.2 µM (inactive)
HOP-92
  GI50: 19.6 µM (inactive)
SF-295
  GI50: 31.6 µM (inactive)
IGROV-1
  GI50: 32.7 µM (inactive)
HOP-62
  GI50: 18 µM (inactive)
K562
  GI50: 21.9 µM (inactive)
HL-60
  GI50: 17.5 µM (inactive)
DMS-114
  GI50: 23.7 µM (inactive)
HCT-116
  GI50: 17.7 µM (inactive)
SNB-75
  GI50: 28.1 µM (inactive)
OVCAR-3
  GI50: 23.4 µM (inactive)
SNB-78
  GI50: 27.2 µM (inactive)
SK-OV-3
  GI50: 57.3 µM (inactive)
UACC-62
  GI50: 28.8 µM (inactive)
NCI-H460
  GI50: 40.8 µM (inactive)
SN12C
  GI50: 28.7 µM (inactive)
UACC-257
  GI50: 34.9 µM (inactive)
CCRF-CEM
  GI50: 19.7 µM (inactive)
Malme-3M
  GI50: 27.2 µM (inactive)
EKVX
  GI50: > 100 µM (inactive)
RPMI-8226
  GI50: 22.7 µM (inactive)
LOX IMVI
  GI50: 29.5 µM (inactive)
HCT-15
  GI50: 23.4 µM
NCI-H23
  GI50: > 10 µM (inactive)
U-251
  GI50: 38.5 µM (inactive)
786-0
  GI50: 23.2 µM (inactive)
DLD-1
  GI50: 12.6 µM (inactive)
SW-620
  GI50: 39.4 µM (inactive)
A549
  GI50: 43.8 µM (inactive)
M14
  GI50: 22.9 µM (inactive)
KM12
  GI50: 27.9 µM (inactive)
ACHN
  GI50: 28 µM (inactive)
KM-20L2
  GI50: 35.8 µM (inactive)
SK-MEL-5
  GI50: 33 µM (inactive)

## O=C(NCCCCCCCN1CCCCCCC1)C(C1CCCCC1)C1CCCCC1
TK-10
  GI50: 12.9 µM (inactive)
NCI/ADR-RES
  GI50: 9.98 µM (inactive)
Hs-578T
  GI50: 21.7 µM (inactive)
SF-539
  GI50: 11.2 µM (inactive)
OVCAR-8
  GI50: 12.3 µM (inactive)
MOLT-4
  GI50: 1.19 µM (inactive)
COLO 205
  GI50: 2.81 µM (inactive)
MDA-MB-231
  GI50: 8.51 µM (inactive)
UO-31
  GI50: 9.53 µM (inactive)
RXF 393
  GI50: 5.61 µM (inactive)
A498
  GI50: 5.83 µM (inactive)
SF-268
  GI50: 15.8 µM (inactive)
SNB-19
  GI50: 14.3 µM (inactive)
CAKI-1
  GI50: 7.14 µM (inactive)
SK-MEL-2
  GI50: 9.08 µM (inactive)
HCC 2998
  GI50: 2.76 µM (inactive)
OVCAR-5
  GI50: 11 µM (inactive)
SK-MEL-28
  GI50: 6.08 µM (inactive)
HT-29
  GI50: 2.82 µM (inactive)
NCI-H226
  GI50: 9.42 µM (inactive)
MDA-N
  GI50: 7.93 µM (inactive)
HOP-92
  GI50: 9.06 µM (inactive)
SF-295
  GI50: 11.4 µM (inactive)
BT-549
  GI50: 14.3 µM (inactive)
SR
  GI50: 2.34 µM (inactive)
IGROV-1
  GI50: 12.3 µM (inactive)
HOP-62
  GI50: 3.97 µM (inactive)
K562
  GI50: 2.77 µM (inactive)
MDA-MB-435
  GI50: 7.67 µM (inactive)
HL-60
  GI50: 5.14 µM (inactive)
NCI-H522
  GI50: 14 µM (inactive)
HCT-116
  GI50: 7.66 µM (inactive)
SNB-75
  GI50: 9.79 µM (inactive)
OVCAR-4
  GI50: 9.38 µM (inactive)
OVCAR-3
  GI50: 6.07 µM (inactive)
SK-OV-3
  GI50: 11.3 µM (inactive)
UACC-62
  GI50: 4.76 µM (inactive)
NCI-H460
  GI50: 9.1 µM (inactive)
SN12C
  GI50: 13.1 µM (inactive)
UACC-257
  GI50: 2.09 µM (inactive)
T47D
  GI50: 6.05 µM (inactive)
CCRF-CEM
  GI50: 6.97 µM (inactive)
Malme-3M
  GI50: 3.34 µM (inactive)
EKVX
  GI50: 4.4 µM (inactive)
RPMI-8226
  GI50: 2.56 µM (inactive)
LOX IMVI
  GI50: 12 µM (inactive)
HCT-15
  GI50: 4.07 µM
NCI-H23
  GI50: 12.9 µM (inactive)
DU-145
  GI50: 13.8 µM (inactive)
U-251
  GI50: 8.51 µM (inactive)
786-0
  GI50: 4.74 µM (inactive)
SW-620
  GI50: 12.1 µM (inactive)
PC-3
  GI50: 8.57 µM (inactive)
A549
  GI50: 11.7 µM (inactive)
MCF7
  GI50: 7.16 µM (inactive)
M14
  GI50: 2.01 µM (inactive)
KM12
  GI50: 6.75 µM (inactive)
ACHN
  GI50: 12 µM (inactive)
SK-MEL-5
  GI50: 2.42 µM (inactive)

## CCOC(=O)NC(Nc1ccc(F)c(F)c1)(C(=O)OCC)C(F)(F)F (stereo not drawn)
TK-10
  GI50: > 100 µM (inactive)
NCI/ADR-RES
  GI50: > 68.5 µM (inactive)
Hs-578T
  GI50: > 25.9 µM (inactive)
SF-539
  GI50: > 100 µM (inactive)
OVCAR-8
  GI50: 46 µM (inactive)
MOLT-4
  GI50: > 100 µM (inactive)
COLO 205
  GI50: > 60.4 µM (inactive)
MDA-MB-231
  GI50: > 100 µM (inactive)
UO-31
  GI50: > 65.6 µM (inactive)
RXF 393
  GI50: > 100 µM (inactive)
A498
  GI50: > 100 µM (inactive)
SF-268
  GI50: > 100 µM (inactive)
SNB-19
  GI50: > 100 µM (inactive)
CAKI-1
  GI50: > 100 µM (inactive)
SK-MEL-2
  GI50: 17.5 µM (inactive)
HCC 2998
  GI50: > 100 µM (inactive)
OVCAR-5
  GI50: > 100 µM (inactive)
SK-MEL-28
  GI50: > 100 µM (inactive)
HT-29
  GI50: > 100 µM (inactive)
NCI-H226
  GI50: > 100 µM (inactive)
MDA-N
  GI50: > 100 µM (inactive)
HOP-92
  GI50: > 100 µM (inactive)
SF-295
  GI50: 74 µM (inactive)
BT-549
  GI50: > 100 µM (inactive)
SR
  GI50: > 100 µM (inactive)
IGROV-1
  GI50: > 28.1 µM (inactive)
HOP-62
  GI50: > 100 µM (inactive)
K562
  GI50: 17.8 µM (inactive)
MDA-MB-435
  GI50: 5.69 µM (inactive)
HL-60
  GI50: 20.4 µM (inactive)
NCI-H522
  GI50: > 100 µM (inactive)
HCT-116
  GI50: > 40.8 µM (inactive)
SNB-75
  GI50: 98.9 µM (inactive)
OVCAR-4
  GI50: > 46.3 µM (inactive)
OVCAR-3
  GI50: > 100 µM (inactive)
SK-OV-3
  GI50: > 100 µM (inactive)
UACC-62
  GI50: 0.186 µM (active)
NCI-H460
  GI50: > 100 µM (inactive)
SN12C
  GI50: > 100 µM (inactive)
UACC-257
  GI50: > 100 µM (inactive)
T47D
  GI50: 18.2 µM (inactive)
CCRF-CEM
  GI50: > 100 µM (inactive)
Malme-3M
  GI50: > 100 µM (inactive)
EKVX
  GI50: > 100 µM (inactive)
RPMI-8226
  GI50: > 100 µM (inactive)
LOX IMVI
  GI50: 0.361 µM (active)
HCT-15
  GI50: > 100 µM
NCI-H23
  GI50: > 100 µM (inactive)
DU-145
  GI50: > 62.8 µM (inactive)
U-251
  GI50: > 100 µM (inactive)
786-0
  GI50: > 100 µM (inactive)
SW-620
  GI50: 17.4 µM (inactive)
PC-3
  GI50: > 80.5 µM (inactive)
A549
  GI50: > 100 µM (inactive)
MCF7
  GI50: > 100 µM (inactive)
M14
  GI50: 0.826 µM (active)
KM12
  GI50: 3.23 µM (inactive)
ACHN
  GI50: 27 µM (inactive)
SK-MEL-5
  GI50: 13.8 µM (inactive)
